Assay results published in publication PMC6713424 (Journal of Medicinal Chemistry, 2019).
Entries after “also recorded” stand apart in the source; their conditions may differ.

Legend:
[1] = system: HSC-2 human oral cancer cells; test: MTT cell proliferation assay in HSC-2 cells; assay type: cell-based; conditions: HSC-2, 1-100 μM, 24, 48 and 72 h
[2] = system: NNMT activity (MNA production) in HSC-2 cells; test: Cellular MNA levels in HSC-2 cells; assay type: cell-based, human; conditions: HSC-2, 100 μM, 72 h; same effect in DMSO control

| SMILES | effect on cell proliferation (in words) [1] | cellular MNA production (in words) [2] |
| --- | --- | --- |
| NC(=O)c1cccc(CN(CC[C@H](N)C(=O)O)C[C@H]2O[C@@H](n3cnc4c(N)ncnc43)[C@H](O)[C@@H]2O)c1 [Compound 1] | not significantly inhibited | – |
| Nc1ncnc2c1ncn2[C@@H]1O[C@H](CN(CCC[C@H](N)C(=O)O)Cc2ccc3ccccc3c2)[C@@H](O)[C@H]1O [Compound 81, (S)-2-Amino-5-((((2R,3S,4R,5R)-5-(6-amino-9H-purin-9-yl)-3,4-dihydroxytetrahydrofuran-2-yl)methyl)(naphthalen-2-ylmethyl)amino)pentanoic Acid] | not significantly inhibited | – |
| Nc1ncnc2c1ncn2[C@@H]1O[C@H](CN(CC[C@H](N)C(=O)O)Cc2ccc3ccccc3c2)[C@@H](O)[C@H]1O [Compound 78, (S)-2-Amino-4-((((2R,3S,4R,5R)-5-(6-amino-9H-purin-9-yl)-3,4-dihydroxytetrahydrofuran-2-yl)methyl)(naphthalen-2-ylmethyl)amino)butanoic Acid] | notable decrease in cell proliferation; also recorded: significant inhibitory effect on cell proliferation | increase in cellular MNA production |
